Results as given in publication PMC5429603, “Discovery and characterization of verinurad, a potent and specific inhibitor of URAT1 for the treatment of hyperuricemia and gout” (Scientific Reports, 2017).

Biological target: T1, human URAT1 h-F449Y (Homo sapiens, UniProt Q96S37, F449Y)
T1 construct: expressed in transfected cells; host or cells: HEK-293T
T1 sequence (Q96S37 1-553 F449Y): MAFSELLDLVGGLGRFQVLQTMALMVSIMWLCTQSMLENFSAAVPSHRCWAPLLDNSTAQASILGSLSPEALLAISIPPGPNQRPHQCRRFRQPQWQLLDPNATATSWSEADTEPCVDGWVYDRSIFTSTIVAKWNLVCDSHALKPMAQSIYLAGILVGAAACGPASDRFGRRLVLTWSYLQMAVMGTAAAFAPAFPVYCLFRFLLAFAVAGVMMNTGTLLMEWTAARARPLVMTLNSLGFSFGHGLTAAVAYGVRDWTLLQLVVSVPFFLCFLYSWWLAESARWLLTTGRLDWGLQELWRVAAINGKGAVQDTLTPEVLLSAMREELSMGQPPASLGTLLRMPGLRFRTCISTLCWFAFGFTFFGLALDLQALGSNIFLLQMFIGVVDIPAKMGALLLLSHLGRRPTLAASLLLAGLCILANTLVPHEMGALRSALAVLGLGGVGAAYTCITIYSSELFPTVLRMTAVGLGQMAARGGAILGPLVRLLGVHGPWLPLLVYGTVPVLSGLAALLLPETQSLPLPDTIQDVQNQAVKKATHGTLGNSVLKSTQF
Assay: URAT1 activity assay, h-F449Y
Type: cell-based
Description: Human URAT1 (GenBank BC053348.1, Homo sapiens SLC22A12), rat URAT1 (NCBI NM_001034943.1, Rattus norvegicus Slc22a12) and human OAT4 (NCBI NM_018484.2, Homo sapiens SLC22A11) genes were purchased from Origene Technologies, Inc. and subcloned into pCMV6/neo using NotI. Where indicated, controls transfections used pCMV6/neo. Mutants were produced by site-directed mutagenesis using the QuikChange Lightning Multi Site-Directed Mutagenesis Kit (Agilent Technologies). […] Mutagenic primer sequences are provided in ref. [15] and mutagenic primer sequences for previously unreported mutants shown in Supplementary Table 1. All constructs used in this study were untagged. Human OAT1 was purchased from Fisher Scientific (catalog # MHS1010–7508183 in pSPORT6, NCBI NM_153276.2, Homo sapiens SLC22A6).
HEK-293T cells were maintained in DMEM/high glucose/L-glutamine/HEPES supplemented with 1 mM sodium pyruvate (Life Technologies) and 10% FBS (PAA Laboratories) at 37 °C in 5% CO2. To express URAT1, OAT4 or OAT1, plasmids were reverse transfected into HEK-293T cells. DNA (10 µg) was mixed with 30 µl of DreamFect Gold (Boca Scientific) in 2 ml OptiMem (Life Technologies). After 20 minutes, 18 ml of media containing 2 × 10^7 cells in suspension was added and mixed, and 200 µl per well were plated onto white clear-bottomed poly-D-lysine coated 96-well plates (BD Biosciences). The cells were assayed the following day.
URAT1 and OAT4 activity assays were performed in assay buffer consisting of 25 mM MES pH 5.5 (from a 1 M MES solution [Sigma] adjusted to pH 5.5 with sodium hydroxide), 125 mM sodium gluconate, 4.8 mM potassium gluconate, 1.2 mM monobasic potassium phosphate, 1.2 mM magnesium sulfate, 1.3 mM calcium gluconate and 5.6 mM glucose. URAT1 inhibitors were serially diluted into assay buffer and added to the cells for 5 minutes prior to addition of substrate. URAT1-expressing cells were incubated with 100 µM ^14C-uric acid for 10 minutes and OAT4-expressing cells were incubated with 20 µM carboxyfluorescein (Life Technologies, Inc.) for 5 minutes. Cells were then washed three times in 25 mM MES pH 5.5/125 mM sodium gluconate, and solubilized in Ultima Gold (Perkin Elmer) prior to liquid scintillation counting. Each treatment was measured in triplicate.

fold reduced affinity compared to human URAT1 (h-F449Y): the same affinity
IC50 (h-F449Y binding site point mutant): 0.025 µM
Compound: CC(C)(Sc1ccncc1-c1ccc(C#N)c2ccccc12)C(=O)O [Verinurad, 2-((3-(4-cyanonaphthalen-1-yl)pyrindin-4-yl)thio)-2-methylpropanoic acid]
